Laboratory results as given in patent US20250163104A1, “MACROCYCLIC IMMUNOMODULATORS” (priority 2021, published 2025).
Where a SMILES comes first, the peptide text is derived from it. Bridges are numbered along the chain shown (N, C = ends). [ ]: non-standard residue; d: D form. The star is where a group is joined. ξ: configuration not given here. Phe(3-COOH) = N[C@@H](Cc1cccc(C(=O)O)c1)C(=O)O; Phe(4-COOH) = N[C@@H](Cc1ccc(C(=O)O)cc1)C(=O)O; Bip = N[C@@H](Cc1ccc(-c2ccccc2)cc1)C(=O)O; Phe(3-Me) = Cc1cccc(C[C@H](N)C(=O)O)c1; Phe(2-Me) = Cc1ccccc1C[C@H](N)C(=O)O; 3Pal = N[C@@H](Cc1cccnc1)C(=O)O; 4Pal = N[C@@H](Cc1ccncc1)C(=O)O; Cha = N[C@@H](CC1CCCCC1)C(=O)O; Cit = NC(=O)NCCC[C@H](N)C(=O)O; Ile(3ξ) = CCC(C)[C@H](N)C(=O)O; Carboxymethyl = O=C(O)C*; Nle = CCCC[C@H](N)C(=O)O; Orn = NCCC[C@H](N)C(=O)O; Pra = C#CC[C@H](N)C(=O)O; Dab = NCC[C@H](N)C(=O)O; Dap = NC[C@H](N)C(=O)O; Propargyl = C#CC*

Target: T1, human PD-1 / PD-L1-Ig binding on Jurkat cell line over-expressing human PD-1 (Jurkat-PD-1) (Homo sapiens, UniProt Q15116)
T1 construct: expressed in transfected cells; host or cells: Jurkat
Assay: Jurkat-PD-1 Cell Binding High-Content Screening Assay (CBA)
Type: cell-based
Details: Jurkat-PD-1 cells, PE-labeled PD-L1-Ig 20 nM final; read-out: Jurkat HPD1_PDL1 IC50
Procedure, shortened: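 PE-PD-L1-Ig 20 nM final; cells in DMEM/10% FCS; cpd pre-incubation 2 h, 37° C; ligand 1 h; PFA fix + Hoechst 33342; high-content imaging read-out.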

T1 sequence (Q15116 25-288): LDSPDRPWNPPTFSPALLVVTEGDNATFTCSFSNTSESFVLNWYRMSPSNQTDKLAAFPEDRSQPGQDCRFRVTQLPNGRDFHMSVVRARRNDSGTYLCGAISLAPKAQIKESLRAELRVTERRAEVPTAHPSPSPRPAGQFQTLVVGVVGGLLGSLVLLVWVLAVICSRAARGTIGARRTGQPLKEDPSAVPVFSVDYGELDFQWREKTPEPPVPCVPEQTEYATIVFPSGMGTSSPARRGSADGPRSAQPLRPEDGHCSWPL

Point of comparison: CC[C@H](C)[C@@H]1NC(=O)[C@H](Cc2ccc(-c3ccccc3)cc2)NC(=O)[C@H](C(C)C)NC(=O)[C@H](Cc2c[nH]c3ccccc23)NC(=O)[C@H](CC(=O)O)NC(=O)[C@H](Cc2ccncc2)NC(=O)[C@H](Cc2ccc(OCC(=O)O)cc2)NC(=O)CSC[C@@H](C(=O)N[C@@H](C)C(N)=O)NC(=O)[C@H]([C@@H](C)O)NC(=O)[C@H](C(C)C)NC(=O)[C@H](CC2CCCCC2)NC(=O)[C@H](CCN)NC(=O)[C@@H](CC(C)C)NC(=O)[C@H](CCCN)NC1=O [Compound 1332], IC50 11.7 nM. Against it:
- CC(=O)NCCCC[C@@H]1NC(=O)[C@H](CCCNC(N)=O)NC(=O)[C@H](Cc2ccc(-c3ccccc3)cc2)NC(=O)[C@H](CC(C)C)NC(=O)[C@H](Cc2c[nH]c3ccccc23)NC(=O)[C@H](CC(N)=O)NC(=O)[C@H](Cc2ccc(OCC(=O)O)cc2)NC(=O)[C@H](Cc2ccccc2)NC(=O)CSC[C@@H](C(=O)N[C@@H](C)C(N)=O)NC(=O)[C@H](CO)NC(=O)[C@H](C(C)C)NC(=O)[C@H](CC2CCCCC2)NC(=O)[C@H](CC(N)=O)NC(=O)[C@@H](CC(C)C)NC1=O [Compound 2502] ({CH2CO}-FY(Carboxymethyl)NWL[Bip][Cit]K(Ac)[dL]N[Cha]VSCA-NH2; thioether N-14) — 4.3-fold higher, 50.8 nM
- CC[C@H](C)[C@@H]1NC(=O)[C@H](Cc2ccc(-c3ccccc3)cc2)NC(=O)[C@H](C(C)C)NC(=O)[C@H](Cc2c[nH]c3ccccc23)NC(=O)[C@H](CC(=O)O)NC(=O)[C@H](Cc2ccncc2)NC(=O)[C@H](CN)NC(=O)CSC[C@@H](C(=O)N[C@@H](C)C(N)=O)NC(=O)[C@H]([C@@H](C)O)NC(=O)[C@H](C(C)C)NC(=O)[C@H](CC(C)C)NC(=O)[C@H](CCN)NC(=O)[C@@H](CC(C)C)NC(=O)[C@H](CCCN)NC1=O [Compound 1238] ({CH2CO}-[Dap][4Pal]DWV[Bip]I[Orn][dL][Dab]LVTCA-NH2; thioether N-14) — within 1.5-fold, 15 nM
- Cc1cccc(C[C@@H]2NC(=O)[C@H](CC(=O)O)NC(=O)[C@H](Cc3ccc(OCC(=O)O)cc3)NC(=O)[C@H](CN)NC(=O)CSC[C@@H](C(=O)N[C@@H](C)C(N)=O)NC(=O)[C@H](CCCNC(=N)N)NC(=O)[C@H](C(C)C)NC(=O)[C@H](CC3CCCCC3)NC(=O)[C@H](CCN)NC(=O)[C@@H](CC(C)C)NC(=O)[C@H](CCCN)NC(=O)[C@H](C(C)C)NC(=O)[C@H](Cc3ccc(-c4ccccc4)cc3)NC(=O)[C@H](C(C)C)NC2=O)c1 [Compound 1756] ({CH2CO}-[Dap]Y(Carboxymethyl)D[Phe(3-Me)]V[Bip]V[Orn][dL][Dab][Cha]VRCA-NH2; thioether N-14) — 2.1-fold lower, 5.5 nM
- Cc1ccccc1C[C@@H]1NC(=O)[C@H](CCN)NC(=O)[C@@H](CC(C)C)NC(=O)[C@H](CCCN)NC(=O)[C@H](CCC(=O)O)NC(=O)[C@H](Cc2ccc(-c3ccccc3)cc2)NC(=O)[C@H](C(C)C)NC(=O)[C@H](Cc2c[nH]c3ccccc23)NC(=O)[C@H](CC(=O)O)NC(=O)[C@H](Cc2ccc(OCC(=O)O)cc2)NC(=O)[C@H](CN)NC(=O)CSC[C@@H](C(=O)N[C@@H](C)C(N)=O)NC(=O)[C@H]([C@@H](C)O)NC(=O)[C@H](C(C)C)NC1=O [Compound 1484] ({CH2CO}-[Dap]Y(Carboxymethyl)DWV[Bip]E[Orn][dL][Dab][Phe(2-Me)]VTCA-NH2; thioether N-14) — within 1.5-fold, 12.3 nM
- CCC(C)[C@@H]1NC(=O)[C@H](Cc2ccc(-c3ccccc3)cc2)NC(=O)[C@H](C(C)C)NC(=O)[C@H](Cc2cccc(C)c2)NC(=O)[C@H](CC(=O)O)NC(=O)[C@H](Cc2cccnc2)NC(=O)[C@H](CC(N)=O)NC(=O)CSC[C@@H](C(=O)N[C@@H](C)C(N)=O)NC(=O)[C@H]([C@@H](C)O)NC(=O)[C@H](C(C)C)NC(=O)[C@H](CC2CCCCC2)NC(=O)[C@H](CCN)NC(=O)[C@@H](CC(C)C)NC(=O)[C@H](CCCN)NC1=O (stereo partly drawn) [Compound 2233] ({CH2CO}-N[3Pal]D[Phe(3-Me)]V[Bip][Ile(3ξ)][Orn][dL][Dab][Cha]VTCA-NH2; thioether N-14) — within 1.5-fold, 12 nM
- CC(C)C[C@@H]1NC(=O)[C@H](CCN)NC(=O)[C@@H](CC(C)C)NC(=O)[C@H](CN)NC(=O)[C@H](CCCNC(=N)N)NC(=O)[C@H](Cc2ccc(-c3ccccc3)cc2)NC(=O)[C@H](C(C)C)NC(=O)[C@H](Cc2c[nH]c3ccccc23)NC(=O)[C@H](CC(=O)O)NC(=O)[C@H](Cc2ccc(O)cc2)NC(=O)[C@H](CC(N)=O)NC(=O)CSC[C@@H](C(=O)N[C@@H](C)C(N)=O)NC(=O)[C@H]([C@@H](C)O)NC(=O)[C@H](C(C)C)NC1=O [Compound 1009] ({CH2CO}-NYDWV[Bip]R[Dap][dL][Dab]LVTCA-NH2; thioether N-14) — 4.5-fold higher, 52.9 nM
- Cc1cccc(C[C@@H]2NC(=O)[C@H](CC(=O)O)NC(=O)[C@H](Cc3ccc(C(=O)O)cc3)NC(=O)[C@H](Cc3ccncc3)NC(=O)CSC[C@@H](C(N)=O)NC(=O)[C@H]([C@@H](C)O)NC(=O)[C@H](C(C)C)NC(=O)[C@H](CC3CCCCC3)NC(=O)[C@H](CCN)NC(=O)[C@@H](CC(C)C)NC(=O)[C@H](CCCN)NC(=O)[C@H](CCCNC(N)=O)NC(=O)[C@H](Cc3ccc(-c4ccccc4)cc3)NC(=O)[C@H](C(C)C)NC2=O)c1 [Compound 1549] ({CH2CO}-[4Pal][Phe(4-COOH)]D[Phe(3-Me)]V[Bip][Cit][Orn][dL][Dab][Cha]VTC-NH2; thioether N-14) — within 1.5-fold, 10.9 nM
- C#CCOc1ccc(C[C@@H]2NC(=O)[C@H](Cc3ccc(-c4ccccc4)cc3)NC(=O)[C@H](Cc3ccc(OCC(=O)O)cc3)NC(=O)[C@H](Cc3cccc(C)c3)NC(=O)[C@H](CC(=O)O)NC(=O)[C@H](Cc3ccc(OCC(=O)O)cc3)NC(=O)[C@H](CCCC)NC(=O)CSC[C@@H](C(=O)N[C@@H](CCN)C(N)=O)NC(=O)[C@H](CCC(=O)O)NC(=O)[C@H](C(C)C)NC(=O)[C@H](CC3CCCCC3)NC(=O)[C@H](CCN)NC(=O)[C@@H](CC(C)C)NC(=O)[C@H](CCCN)NC2=O)cc1 [Compound 1838] ({CH2CO}-[Nle]Y(Carboxymethyl)D[Phe(3-Me)]Y(Carboxymethyl)[Bip]Y(Propargyl)[Orn][dL][Dab][Cha]VEC[Dab]-NH2; thioether N-14) — 1.5-fold lower, 7.6 nM
- CCCC[C@@H]1NC(=O)[C@H](CCN)NC(=O)[C@@H](CC(C)C)NC(=O)[C@H](CCCN)NC(=O)[C@H]([C@@H](C)CC)NC(=O)[C@H](Cc2ccc(-c3ccccc3)cc2)NC(=O)[C@H](C(C)C)NC(=O)[C@H](Cc2c[nH]c3ccccc23)NC(=O)[C@H](CC(=O)O)NC(=O)[C@H](Cc2ccc(O)cc2)NC(=O)[C@H](CN)NC(=O)CSC[C@@H](C(=O)N[C@@H](C)C(N)=O)NC(=O)[C@H]([C@@H](C)O)NC(=O)[C@H](C(C)C)NC1=O [Compound 1160] ({CH2CO}-[Dap]YDWV[Bip]I[Orn][dL][Dab][Nle]VTCA-NH2; thioether N-14) — 2.7-fold higher, 31.3 nM
- CC(C)C[C@H]1NC(=O)[C@H](CCCN)NC(=O)[C@H](C(C)C)NC(=O)[C@H](Cc2ccc(-c3ccccc3)cc2)NC(=O)[C@H](C(C)C)NC(=O)[C@H](Cc2c[nH]c3ccccc23)NC(=O)[C@H](CC(=O)O)NC(=O)[C@H](Cc2ccc(OCC(=O)O)cc2)NC(=O)[C@H](CN)NC(=O)CSC[C@@H](C(=O)N[C@@H](C)C(N)=O)NC(=O)[C@H]([C@@H](C)O)NC(=O)[C@H](C(C)C)NC(=O)[C@H](CC2CCCCC2)NC(=O)[C@H](CC(N)=O)NC1=O [Compound 1519] ({CH2CO}-[Dap]Y(Carboxymethyl)DWV[Bip]V[Orn][dL]N[Cha]VTCA-NH2; thioether N-14) — 1.5-fold lower, 7.7 nM
- C#CC[C@H](NC(=O)[C@H](CCN)NC(=O)[C@@H]1CSCC(=O)N[C@@H](CCN)C(=O)N[C@@H](Cc2ccc(OCC(=O)O)cc2)C(=O)N[C@@H](CC(=O)O)C(=O)N[C@@H](Cc2cccc(C)c2)C(=O)N[C@@H](Cc2ccc(C(=O)O)cc2)C(=O)N[C@@H](Cc2ccc(-c3ccccc3)cc2)C(=O)N[C@@H](Cc2ccc(C(=O)O)cc2)C(=O)N[C@@H](CCCN)C(=O)N[C@H](CC(C)C)C(=O)N[C@@H](CCN)C(=O)N[C@@H](CC2CCCCC2)C(=O)N[C@@H](C(C)C)C(=O)N[C@@H](CCC(=O)O)C(=O)N1)C(=O)O [Compound 1823] ({CH2CO}-[Dab]Y(Carboxymethyl)D[Phe(3-Me)][Phe(4-COOH)][Bip][Phe(4-COOH)][Orn][dL][Dab][Cha]VEC[Dab][Pra]-OH; thioether N-14) — within 1.5-fold, 10.1 nM
- CC(C)C[C@@H]1NC(=O)[C@H](Cc2c[nH]c3ccccc23)NC(=O)[C@H](CC(=O)O)NC(=O)[C@H](Cc2ccc(C(=O)O)cc2)NC(=O)[C@H](Cc2cccc(C(=O)O)c2)NC(=O)CSC[C@@H](C(=O)NCC(N)=O)NC(=O)[C@H](CO)NC(=O)[C@H](C(C)C)NC(=O)[C@H](CC2CCCCC2)NC(=O)[C@H](CCN)NC(=O)[C@@H](CC(C)C)NC(=O)[C@H](CCCN)NC(=O)[C@H](C(C)C)NC(=O)[C@H](Cc2ccc(-c3ccccc3)cc2)NC1=O [Compound 2014] ({CH2CO}-[Phe(3-COOH)][Phe(4-COOH)]DWL[Bip]V[Orn][dL][Dab][Cha]VSCG-NH2; thioether N-14) — within 1.5-fold, 17.2 nM
- CC(C)C[C@H]1NC(=O)[C@H](CCCN)NC(=O)[C@H](C(C)C)NC(=O)[C@H](Cc2ccc(-c3ccccc3)cc2)NC(=O)[C@H](C(C)C)NC(=O)[C@H](Cc2c[nH]c3ccccc23)NC(=O)[C@H](CC(=O)O)NC(=O)[C@H](Cc2ccc(OCC(=O)O)cc2)NC(=O)[C@H](CN)NC(=O)CSC[C@@H](C(=O)N[C@@H](C)C(N)=O)NC(=O)[C@H](CN)NC(=O)[C@H](C(C)C)NC(=O)[C@H](CC2CCCCC2)NC(=O)[C@H](CCN)NC1=O [Compound 1738] ({CH2CO}-[Dap]Y(Carboxymethyl)DWV[Bip]V[Orn][dL][Dab][Cha]V[Dap]CA-NH2; thioether N-14) — within 1.5-fold, 8.3 nM
- CC(C)C[C@@H]1NC(=O)[C@H](Cc2c[nH]c3ccccc23)NC(=O)[C@H](CC(=O)O)NC(=O)[C@H](Cc2ccc(O)cc2)NC(=O)[C@H](Cc2ccccc2)NC(=O)CSC[C@@H](C(=O)NCC(N)=O)NC(=O)[C@H](CO)NC(=O)[C@H](C(C)C)NC(=O)[C@H](CC(C)C)NC(=O)[C@H](CCN)NC(=O)[C@@H](CC(C)C)NC(=O)[C@H](CCN)NC(=O)[C@H](C(C)C)NC(=O)[C@H](Cc2ccc(-c3ccccc3)cc2)NC1=O [Compound 1063] ({CH2CO}-FYDWL[Bip]V[Dab][dL][Dab]LVSCG-NH2; thioether N-14) — 1.7-fold higher, 19.8 nM
